Patent US8440825B2, “Fumaric acid salt of varenicline” (Medichem S.A., priority 2008, dated 2013)
Where a name gives a salt, the structure may show the parent alone.

Experiments:
[1] = Stability studies of varenicline crystalline salts (one year storage, HPLC and XRD); assay type: physicochemical; conditions: for Purity (HPLC) % 1 year later: after one year at room temperature; for Purity (HPLC) % 1 year later / Purity (HPLC) % initial / XRD result 1 year later: normal pressure, ambient atmosphere; for XRD result Initial: initial polymorphic form, before storage; for Purity (HPLC) % initial: before storage at room temperature; for Stability in terms of chemical purity and polymorphic form (in words): after one year of storage; for XRD result 1 year later: polymorphic form after one year at room temperature
Procedure: The varenicline crystalline salts were stored under standard conditions (i.e. room temperature, normal pressure, ambient atmosphere). The samples were analyzed after one year by HPLC and XRD.

[2] = Solubility in water of varenicline salts; assay type: physicochemical

Molecule | Purity (HPLC) % 1 year later [1] | XRD result Initial [1] | Purity (HPLC) % initial [1] | XRD result 1 year later [1] | Solubility in water [2] | also measured
O=C(O)C(O)c1ccccc1.c1cnc2cc3c(cc2n1)C1CNCC3C1 (racemic) [Example 10, varenicline DL-mandelate] | 95.55% | Form I | 99.93% |  |  | 
CC(O)C(=O)O.c1cnc2cc3c(cc2n1)C1CNCC3C1 (racemic) [Example 17, varenicline DL-lactate] | 98.48% | Form I | 98.98% |  |  | 
O=C(O)CCCCC(=O)O.c1cnc2cc3c(cc2n1)C1CNCC3C1.c1cnc2cc3c(cc2n1)C1CNCC3C1 [Example 1, varenicline hemi-adipate] | 99.77% | Form I | 99.89% | Form I |  | Stability in terms of chemical purity and polymorphic form (in words) [1]: highly stable in terms of chemical purity and of polymorphic form
O=C(O)CCCC(=O)O.c1cnc2cc3c(cc2n1)C1CNCC3C1 [Example 3, varenicline glutarate] | 97.90% | Form I | 98.77% |  |  | 
c1cnc2cc3c(cc2n1)[C@@H]1CNC[C@H]3C1 [Example 5, varenicline hydrochloride] |  |  |  |  |  | solubility [2]: > 20 mg/mL
O=C(O)CCC(=O)C(=O)O.c1cnc2cc3c(cc2n1)C1CNCC3C1 [Example 6, varenicline α-ketoglutarate] | 98.45% | Form I | 99.71% |  |  | 
O=C(O)CC(=O)O.c1cnc2cc3c(cc2n1)C1CNCC3C1 [Example 9, varenicline malonate] | 99.45% | Form I | 99.91% |  |  | 
O=S(=O)(O)CCS(=O)(=O)O.c1cnc2cc3c(cc2n1)C1CNCC3C1.c1cnc2cc3c(cc2n1)C1CNCC3C1 [Example 18, Varenicline Hemi-1,2-Ethane Disulfonate] | 99.36% | Form I | 99.97% |  |  | 
c1cnc2cc3c(cc2n1)[C@@H]1CNC[C@H]3C1 [Hydrochloride, varenicline hydrochloride, reference compound] | 99.68% | Form II | 99.91% | Forms II + III |  | 
varenicline L-malate [Example 7] |  |  |  |  | >20 mg/mL | Solubility in water (in words) [2]: highly soluble; Purity (HPLC) % 1 year later ([1]; listed as Malate Form I): 99.47%; Stability in terms of chemical purity and polymorphic form (in words) ([1]; listed as varenicline L-malate Form I): stable in terms of chemical purity; XRD result Initial ([1]; listed as Malate Form I): Form I; Purity (HPLC) % initial ([1]; listed as Malate Form I): 99.95%
varenicline L-malate [Malate Form II] | 99.66% | Form II | 99.94% | Form II |  | Stability in terms of chemical purity and polymorphic form (in words) ([1]; listed as varenicline L-malate Form II): highly stable in terms of chemical purity and of polymorphic form
varenicline S-2-pyrrolidinon-5-carboxylate [Example 14] | 99.83% | Form I | 99.99% | Form I |  | Stability in terms of chemical purity and polymorphic form (in words) [1]: highly stable in terms of chemical purity and in terms of polymorphic form
varenicline di-mesylate [Example 11] | 99.28% | Form I | 99.99% |  | >20 mg/mL | 
varenicline fumarate [Example 2] | 99.76% | Form I | 99.84% | Form I | >20 mg/mL | Solubility in water (in words) [2]: highly soluble; Stability in terms of chemical purity and polymorphic form (in words) [1]: highly stable in terms of chemical purity and of polymorphic form
varenicline galactarate [Example 16] | 99.71% | Form I | 99.91% | Form I | >20 mg/mL | Solubility in water (in words) [2]: highly soluble; Stability in terms of chemical purity and polymorphic form (in words) [1]: highly stable in terms of chemical purity and of polymorphic form
varenicline glycolate [Example 4] | 99.57% | Form I | 99.95% |  |  | 
varenicline maleate [Example 8] | 99.90% | Form I | 100% | Form I | >20 mg/mL | Solubility in water (in words) [2]: highly soluble; Stability in terms of chemical purity and polymorphic form (in words) [1]: highly stable in terms of chemical purity and of polymorphic form
varenicline oxalate [Example 12] | 99.72% | Form I | 99.91% |  | >20 mg/mL | 
varenicline phosphate [Example 13] |  |  |  |  | >20 mg/mL | Solubility in water (in words) [2]: highly soluble; Purity (HPLC) % 1 year later ([1]; listed as Phosphate Form I): 99.89%; Stability in terms of chemical purity and polymorphic form (in words) [1]: highly stable in terms of chemical purity and in terms of polymorphic form; XRD result Initial ([1]; listed as Phosphate Form I): Form I; Purity (HPLC) % initial ([1]; listed as Phosphate Form I): 100%; XRD result 1 year later ([1]; listed as Phosphate Form I): Form I
varenicline phosphate [Phosphate Form II] | 99.93% | Form II | 99.89% | Form II |  | 
varenicline succinate [Example 15] |  |  |  |  | >20 mg/mL | 
